The first test concerns the target T1, 3-hydroxy-3-methylglutaryl-coenzyme A reductase (Rattus norvegicus, UniProt P51639).
T1 sequence (P51639 whole entry): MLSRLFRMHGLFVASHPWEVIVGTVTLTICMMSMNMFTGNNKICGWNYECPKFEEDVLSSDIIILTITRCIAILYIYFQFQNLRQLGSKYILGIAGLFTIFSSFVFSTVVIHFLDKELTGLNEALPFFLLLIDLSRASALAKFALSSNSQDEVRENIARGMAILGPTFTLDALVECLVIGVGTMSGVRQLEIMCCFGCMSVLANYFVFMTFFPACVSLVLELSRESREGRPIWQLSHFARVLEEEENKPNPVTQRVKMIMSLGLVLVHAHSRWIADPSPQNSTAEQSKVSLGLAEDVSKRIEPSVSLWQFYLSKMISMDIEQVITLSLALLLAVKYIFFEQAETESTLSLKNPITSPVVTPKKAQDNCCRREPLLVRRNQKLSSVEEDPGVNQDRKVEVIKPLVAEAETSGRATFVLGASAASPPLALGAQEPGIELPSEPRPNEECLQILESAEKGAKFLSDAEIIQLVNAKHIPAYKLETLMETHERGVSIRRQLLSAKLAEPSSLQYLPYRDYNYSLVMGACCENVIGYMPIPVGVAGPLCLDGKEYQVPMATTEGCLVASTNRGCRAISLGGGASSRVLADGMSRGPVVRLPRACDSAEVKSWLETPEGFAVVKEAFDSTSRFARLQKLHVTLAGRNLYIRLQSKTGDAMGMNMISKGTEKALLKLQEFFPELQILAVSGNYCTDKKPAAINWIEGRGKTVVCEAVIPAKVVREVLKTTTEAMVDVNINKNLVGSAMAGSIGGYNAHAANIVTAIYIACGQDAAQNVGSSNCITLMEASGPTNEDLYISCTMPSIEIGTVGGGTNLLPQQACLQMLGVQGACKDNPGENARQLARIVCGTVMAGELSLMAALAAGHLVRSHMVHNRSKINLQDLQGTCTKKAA
Kind of test: (§1) In vitro ability to inhibit HMG-CoA reductase. The note with it: read-out: I50.
`CC[C@H](C)C(=O)OC[C@H]1CCCC[C@@H]1CCC(=O)C[C@@H](O)CC(=O)O`: the IC50 came to 320 µM.

A further test deals with T2, 3-hydroxy-3-methylglutaryl-coenzyme A reductase (Homo sapiens, UniProt P04035).
T2 sequence (P04035 whole entry): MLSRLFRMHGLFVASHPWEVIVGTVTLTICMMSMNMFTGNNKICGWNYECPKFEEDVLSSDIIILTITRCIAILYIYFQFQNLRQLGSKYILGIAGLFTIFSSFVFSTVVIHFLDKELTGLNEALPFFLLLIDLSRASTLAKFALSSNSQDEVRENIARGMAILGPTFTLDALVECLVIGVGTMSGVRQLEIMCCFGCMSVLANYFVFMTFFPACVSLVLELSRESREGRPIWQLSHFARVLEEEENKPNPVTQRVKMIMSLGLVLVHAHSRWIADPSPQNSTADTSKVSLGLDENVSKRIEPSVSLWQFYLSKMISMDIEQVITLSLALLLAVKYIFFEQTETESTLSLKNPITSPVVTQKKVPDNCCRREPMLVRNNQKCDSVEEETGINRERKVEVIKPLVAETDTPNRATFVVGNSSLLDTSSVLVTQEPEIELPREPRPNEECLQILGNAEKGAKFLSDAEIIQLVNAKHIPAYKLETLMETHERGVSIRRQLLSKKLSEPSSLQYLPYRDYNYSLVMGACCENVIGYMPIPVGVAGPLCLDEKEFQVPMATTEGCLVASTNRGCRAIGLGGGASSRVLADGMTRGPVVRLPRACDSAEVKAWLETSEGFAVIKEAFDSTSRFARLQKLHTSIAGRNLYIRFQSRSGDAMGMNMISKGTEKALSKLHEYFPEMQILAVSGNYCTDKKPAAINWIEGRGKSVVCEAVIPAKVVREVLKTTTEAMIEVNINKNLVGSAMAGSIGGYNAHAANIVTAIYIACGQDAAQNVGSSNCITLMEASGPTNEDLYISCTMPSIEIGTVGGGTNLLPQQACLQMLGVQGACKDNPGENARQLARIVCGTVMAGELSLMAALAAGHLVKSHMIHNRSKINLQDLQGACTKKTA
Described as §1. The settings on record: read-out: I50.
For `CCC[C@@H]1CCC[C@H](/C=C/[C@@H](O)C[C@@H](O)CC(=O)O)[C@H]1COC(=O)C(C)(C)CC`, the IC50 came to 4.9 µM. In the case of `CCC(C)(C)C(=O)OC[C@H]1CCCC[C@@H]1CCC(O)C[C@@H](O)CC(=O)O` (stereo partly specified), the IC50 came out at 4.6 µM.

Turning to `C[C@H]1C=CC[C@H](COC(=O)C(C)(C)C)[C@H]1CCC(O)CC(O)CC(=O)O` (stereo partly specified), the IC50 was determined as 1500 µM. On the same count and under the same terms, the same measure for `CCC[C@@H]1CCC[C@H](CC[C@@H](O)C[C@@H](O)CC(=O)O)[C@H]1COC(=O)C(C)(C)CC`: 1.7 µM; for `CCC[C@@H]1CC[C@H](C)[C@H](CC[C@@H](O)C[C@@H](O)CC(=O)O)[C@H]1COC(=O)C(C)(C)CC`: 0.008 µM.
